Patent US12698463B2, “Spatially controlled fabrication of multi-spheroid tissues using magnetic bioprinting” (The Board of Trustees of the Leland Stanford Junior …, priority 2022, dated 2026)

Experiments:
neural organoids [1] = test: Cleaved caspase-3 immunofluorescence in adjacent neural organoids of the assembloids; assay type: cell-based, human; conditions: 200 nM panobinostat, neural organoids fused to DIPG organoids
Experimental: Organoids and assembloids were fixed in 4% PFA for 2 hours at 4° C. They were then washed three times with DPBS, for 15 min each, and transferred to a 30% sucrose solution in DPBS for 24-48 hours at 4° C. Once the organoids or assembloids sank in the sucrose solution, they were embedded in a 1:1 mixture of OCT (Fisher Scientific) and 30% sucrose in DPBS. They were then snap frozen on dry ice and stored at −80° C. A cryostat (Leica) was used to cut 50 μm sections for immunostaining.
Cryosections were washed with DPBS to remove excess OCT, then permeabilized with 0.25% Triton X-100 (Thermo Fisher) in DPBS (DPBS-T) for 1 hour and blocked with 5% goat serum (Gibco), 5% bovine serum albumin (BSA, Sigma), and 0.5% Triton X-100 in DPBS for 3 hours, all at RT. Samples were stained with primary antibodies for GFP, (1:200, Invitrogen a11122), cleaved caspase-3 (1:400, Cell Signaling 9661), and histone H3 mutated K27M (1:400, Abcam ab190631). Primary antibodies were diluted in 2.5% goat serum, 2.5% BSA, and 0.5% Triton X-100 in DPBS and incubated with the samples overnight at 4° C., Next, the samples were washed with DPBS-T (3×30 min, RT) and incubated with secondary antibody Alexa Fluor 488 (1:500, Invitrogen, A-11034) and 4′,6-diamidino-2-phenylindole (DAPI, 5 mg/mL stock, 1:2000, Invitrogen) in the same antibody dilution solution overnight at 4° C. […]

neural organoids [2] = test: Neural organoid viability (calcein AM / ethidium homodimer) after cellulase; assay type: cell-based, human; conditions: 0.5 wt % cellulase treatment over time
Experimental: To characterize viability, organoids were submerged in a solution consisting of DPBS supplemented with 2 μM calcein AM and 4 µM ethidium homodimer for 20 min at 37° C. The samples were washed with DPBS and imaged with an epifluorescent microscope (Leica Microsystems, THUNDER Imager 3D Cell Culture) and confocal microscope (Leica SPE).

[3] = Cellulase-mediated CNF support scaffold degradation (rheology); conditions: range of cellulase concentrations, 0.5 wt % CNF, over time
Experimental: For measurements of cellulase-mediated CNF support scaffold degradation, cellulase (Sigma) was dissolved in DMEM/F12 (Gibco) and added atop 0.5 wt % CNF in a 1:4 ratio by volume to approximate the ratio of media to CNF support within the bioprinting chip. All samples were incubated in a humidified 37° C. incubator for three days. Depending on the downstream measurement, cellulase solutions, as well as non-cellulase containing DMEM/F12 controls, were either changed every day or allowed to incubate over the full three days without a media change.
Viscosity and storage moduli were obtained with an AR-G2 (TA Instruments) stress-controlled rheometer (20 mm 1° cone and plate geometry with a 28 μm gap). To observe the effect of cellulase on the viscosity of CNF over 72 hours, samples were loaded onto the stage at 37° C. for a 5 min time sweep with 1% oscillatory strain and 1 rad/s angular frequency. This was followed by a frequency sweep from 0.1 to 100 Hz at 1% strain. To measure the storage modulus, samples were loaded onto the stage at 2 hours, 4 hours, 6 hours, 24 hours, 48 hours, and 72 hours and subjected to a frequency sweep at 1 rad/s angular frequency.

[4] = Cellulase-mediated removal of residual CNF on extracted neural organoids; conditions: 0.5 wt % cellulase, over 72 hours
Experimental: To characterize cellulase-mediated CNF degradation after neural organoid release from the support scaffold, neural organoids were first cultured in 0.5 wt % CNF support bath for 1 day and released through diluting the support bath with DPBS. A 0.5 wt % cellulase (Sigma) solution, made up in neural medium, was filtered through a 0.22 μm filter, warmed to 37° C., and added to the organoids with daily medium changes. Organoids were imaged every day with an epifluorescent microscope (Leica Microsystems, THUNDER Imager 3D Cell Culture). The area of residual CNF on the organoid surface was manually measured with ImageJ (NIH, v.2.3.0/1.53q).

## Cc1[nH]c2ccccc2c1CCNCc1ccc(/C=C/C(=O)NO)cc1 [panobinostat]
Neural organoids [1]
  cleaved caspase-3 expression (apoptosis) in adjacent neural organoids: did not exhibit substantially increased cleaved caspase-3 expression
Neural organoids [1]; listed as Panobinostat
  cleaved caspase-3 expression (apoptosis) in adjacent neural organoids: does not induce substantial apoptosis

## cellulase
Neural organoids [2]
  organoid viability: does not affect organoid viability
[3]
  viscosity and storage modulus of CNF support after cellulase: stepwise decreases in both viscosity and storage modulus
[4]
  residual CNF removed from organoid surface: over 98%
